Molecular target: T1, Prostaglandin G/H synthase 2 (Mus musculus, UniProt Q05769)
T1 sequence (Q05769 whole entry): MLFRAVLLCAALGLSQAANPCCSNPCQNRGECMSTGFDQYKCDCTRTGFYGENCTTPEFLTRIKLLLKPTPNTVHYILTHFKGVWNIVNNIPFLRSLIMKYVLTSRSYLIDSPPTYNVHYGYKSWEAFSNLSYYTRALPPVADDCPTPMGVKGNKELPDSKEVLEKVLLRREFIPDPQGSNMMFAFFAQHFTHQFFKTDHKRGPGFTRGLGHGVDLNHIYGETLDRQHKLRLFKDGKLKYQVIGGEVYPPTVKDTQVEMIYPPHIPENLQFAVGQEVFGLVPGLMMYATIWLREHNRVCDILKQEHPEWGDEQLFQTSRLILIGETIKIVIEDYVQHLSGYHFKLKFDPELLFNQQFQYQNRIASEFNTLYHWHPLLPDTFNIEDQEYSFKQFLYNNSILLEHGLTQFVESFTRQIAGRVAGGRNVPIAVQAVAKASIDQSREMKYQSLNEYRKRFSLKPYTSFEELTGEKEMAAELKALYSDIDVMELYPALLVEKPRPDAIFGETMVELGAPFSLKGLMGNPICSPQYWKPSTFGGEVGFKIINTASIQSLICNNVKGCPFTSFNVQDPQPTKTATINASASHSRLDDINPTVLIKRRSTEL
Test: Inhibition of LPS-induced COX2 activity in C57BL/6J mouse peritoneal macrophages by RIA

| Compound | IC50 [µM] |
| --- | --- |
| COc1ccc(/C=C/C(=O)O[C@@H]2[C@@H](O)[C@H](O[C@@H]3[C@@H](O)[C@H](O[C@@H]4CO[C@@H](O[C@@H]5[C@@H](O)[C@H](C)O[C@@H](O[C@H]6[C@H](O[C@H]7CC[C@]8(C)[C@H]9CC=C%10[C@@H]%11CC(C)(C)CC[C@]%11(C(=O)O[C@@H]%11O[C@H](CO[C@@H]%12O[C@H](CO)[C@@H](O[C@@H]%13O[C@@H](C)[C@H](O)[C@@H](O)[C@H]%13O)[C@H](O)[C@H]%12O)[C@@H](O)[C@H](O)[C@H]%11O)CC[C@@]%10(C)[C@]9(C)CC[C@H]8C7(C)C)OC[C@H](O)[C@@H]6O)[C@@H]5O)[C@H](O)[C@@H]4O)O[C@H](CO)[C@H]3O)O[C@H](CO[C@@H]3O[C@@H](C)[C@H](O)[C@@H](O)[C@H]3O)[C@H]2O)cc1O [CLEMATOMANDSHURICA SAPONIN A] | 2.66 |
| COc1cc(/C=C/C(=O)O[C@H]2[C@H](O[C@@H]3[C@@H](O)[C@H](O[C@@H]4CO[C@@H](O[C@@H]5[C@@H](O)[C@H](C)O[C@@H](O[C@H]6[C@H](O[C@H]7CC[C@]8(C)[C@H]9CC=C%10[C@@H]%11CC(C)(C)CC[C@]%11(C(=O)O[C@@H]%11O[C@H](CO[C@@H]%12O[C@H](CO)[C@@H](O[C@@H]%13O[C@@H](C)[C@H](O)[C@@H](O)[C@H]%13O)[C@H](O)[C@H]%12O)[C@@H](O)[C@H](O)[C@H]%11O)CC[C@@]%10(C)[C@]9(C)CC[C@H]8C7(C)C)OC[C@H](O)[C@@H]6O)[C@@H]5O)[C@H](O)[C@@H]4O)O[C@H](CO)[C@H]3O)O[C@H](CO[C@@H]3O[C@@H](C)[C@H](O)[C@@H](O)[C@H]3O)[C@@H](O)[C@@H]2O)ccc1O [CLEMATOMANDSHURICA SAPONIN B] | 2.58 |

From ChEMBL document CHEMBL1158105, “Triterpene saponins from clematis mandshurica” (J Nat Prod, 2006)
